Molecular target: T1, Full-length human Chk1 protein (Homo sapiens, UniProt O14757)
T1 construct: purchased Carna Biosciences, Inc. 02-117
T1 sequence (O14757 1-476): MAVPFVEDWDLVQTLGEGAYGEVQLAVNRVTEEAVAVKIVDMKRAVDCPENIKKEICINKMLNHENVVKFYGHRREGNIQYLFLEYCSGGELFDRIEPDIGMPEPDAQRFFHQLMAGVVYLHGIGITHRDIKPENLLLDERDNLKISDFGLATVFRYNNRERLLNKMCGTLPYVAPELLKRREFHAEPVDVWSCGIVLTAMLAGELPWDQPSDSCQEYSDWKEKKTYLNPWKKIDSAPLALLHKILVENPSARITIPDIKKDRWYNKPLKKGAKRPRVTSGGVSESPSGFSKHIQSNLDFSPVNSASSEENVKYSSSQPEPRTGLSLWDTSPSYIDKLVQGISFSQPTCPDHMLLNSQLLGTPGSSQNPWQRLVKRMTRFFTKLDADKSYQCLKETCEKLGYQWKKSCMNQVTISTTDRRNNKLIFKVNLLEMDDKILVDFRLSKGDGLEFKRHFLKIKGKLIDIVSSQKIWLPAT
Assay: Kinase HTRF biochemical assay (HTRF KinEASE), Chk1 enzyme activity
Details: full-length human Chk1, ATP 1 mM, 60 minutes at room temperature
Procedure: Example A: Kinase HTRF Biochemical Assay
Chk1 enzyme activity was measured using an HTRF KinEASE assay (Cisbio, catalog no. 62ST1PEC). Full-length human Chk1 protein (GenBank accession number NP_001265.1) was obtained from Carna Biosciences, Inc. (Kobe, Japan, catalog no. 02-117). The enzyme reaction was carried out in assay buffer containing (final concentrations): Chk1 enzyme (0.012 ng/μL), MgCl2 (5 mM) and DTT (1 mM). To determine compound dose response, DMSO stock solutions were serially diluted in a 10-point concentration series in duplicate. Compound solution (50 nL) was added to 384-well assay plates (Greiner, catalog no. 784075). To each well containing compound solution was added assay buffer solution (5 μL). Plates were centrifuged at 1000 rpm for 1 minute, then incubated at room temperature for 10 minutes. The reaction was started by addition of substrate buffer (5 μL/well) containing (final concentrations): STK substrate 1-biotin (120 nM) and ATP (1 mM). Assay plates were centrifuged at 1000 rpm for 1 minute, then incubated at room temperature for 60 minutes. The reaction was stopped by addition of detection buffer (Cisbio, 10 μL) containing (final concentrations): STK antibody-cryptate (0.25 nM) and streptavidin-XL665 (7.5 nM). Plates were centrifuged at 1000 rpm for 1 minute, then incubated at 25° C. for 2 hours. HTRF signal was read on an EnVision multimode plate reader […] in HTRF mode. Data were fit to dose-response curves using XLfit (IDBS, Surrey, UK) or Prism (GraphPad Software, La Jolla, Calif., US) to calculate IC50 values for each compound tested.

With N#Cc1cnc(Nc2cc(-c3c(OCC(F)(F)F)cccc3O[C@@H]3CC[C@H](N)C3)[nH]n2)cn1 [Example 1-25, 5-((5-(2-(((1R,3S)-3-aminocyclopentyl)oxy)-6-(2,2,2-trifluoroethoxy)phenyl)-1-pyrazol-3-yl)amino)pyrazine-2-carbonitrile] the IC50 was 500 to 1000 nM.

For COc1cccc(OC[C@H]2C[C@H](N)C2)c1-c1cc(Nc2cnc(C#N)cn2)n[nH]1 [Example 1-3], the IC50 was greater than 1000 nM.

For COc1cccc(O[C@@H]2CCC[C@H](N)C2)c1-c1cc(Nc2cnc(C#N)cn2)n[nH]1 (relative stereo) [Example 1-66], the IC50 was greater than 1000 nM.

Work on CC(C)Oc1cccc(O[C@H]2C[C@H](N)C2)c1-c1cc(Nc2cnc(C#N)cn2)n[nH]1 [Example 1-15, 5-((5-(2-((1r,3r)-3-aminocyclobutoxy)-6-isopropoxyphenyl)-1H-pyrazol-3-yl)amino)pyrazine-2-carbonitrile] yielded an IC50 of 100 to 500 nM.

Compound COCc1cccc(O[C@@H]2CC[C@H](N)C2)c1-c1cc(Nc2cnc(C#N)cn2)n[nH]1 [Example 1-30, 5-((5-(2-(((1R,3S)-3-aminocyclopentyl)oxy)-6-(methoxymethyl)phenyl)-1H-pyrazol-3-yl)amino)pyrazine-2-carbonitrile] has an IC50 greater than 1000 nM.

Work on N#Cc1cnc(Nc2cc(-c3ccccc3OC3CC4(CC(N)C4)C3)[nH]n2)cn1 (centres unmarked) [Example 1-54, 5-((5-(2-((6-aminospiro[3.3]heptan-2-yl)oxy)phenyl)-1H-pyrazol-3-yl)amino)pyrazine-2-carbonitrile] yielded an IC50 of 10 to 100 nM.

COc1cccc(O[C@@H]2CCCC[C@@H](N)C2)c1-c1cc(Nc2cnc(C#N)cn2)n[nH]1 [Example 3-6, 5-((5-(2-(((1R,3R)-3-aminocycloheptyl)oxy)-6-methoxyphenyl)-1H-pyrazol-3-yl)amino)pyrazine-2-carbonitrile] was tested, and the IC50 was 100 to 500 nM.

Compound N#Cc1cnc(Nc2cc(-c3c(OC4CCC4)cccc3O[C@H]3CC[C@H](N)CC3)[nH]n2)cn1 [Example 1-34, 5-((5-(2-(((1r,4r)-4-aminocyclohexyl)oxy)-6-cyclobutoxyphenyl)-1H-pyrazol-3-yl)amino)pyrazine-2-carbonitrile] has an IC50 of 100 to 500 nM.

For COc1ccc(Cl)c(O[C@@H]2CC[C@H](N)C2)c1-c1cc(Nc2cnc(C#N)cn2)n[nH]1 [Example 4-4, 5-((5-(2-(((1R,3S)-3-aminocyclopentyl)oxy)-3-chloro-6-methoxyphenyl)-1H-pyrazol-3-yl)amino)pyrazine-2-carbonitrile], the IC50 was 100 to 500 nM.

For N#Cc1cnc(Nc2cc(-c3c(F)cccc3O[C@H]3CC[C@@H]3N)[nH]n2)cn1 [Example 3-31, 5-((5-(2-((1S,2S)-2-aminocyclobutoxy)-6-fluorophenyl)-1H-pyrazol-3-yl)amino)pyrazine-2-carbonitrile], the IC50 was 100 to 500 nM.

For COc1cccc(O[C@H]2CC[C@H](N)C2)c1-c1cc(Nc2cnc(C#N)cn2)n[nH]1 [Example 1-6, 5-((5-(2-(((1S,3S)-3-aminocyclopentyl)oxy)-6-methoxyphenyl)-1H-pyrazol-3-yl)amino)pyrazine-2-carbonitrile], the IC50 was greater than 1000 nM.

COc1cccc(O[C@@H]2CCC[C@@H](N)C2)c1-c1cc(Nc2cnc(C#N)cn2)n[nH]1 [Example 1-64, 5-((5-(2-(((1R,3R)-3-aminocyclohexyl)oxy)-6-methoxyphenyl)-1H-pyrazol-3-yl)amino)pyrazine-2-carbonitrile] was tested, and the IC50 was greater than 1000 nM.

With N#Cc1cnc(Nc2cc(-c3c(F)cccc3O[C@@H]3CCC[C@@H]3N)[nH]n2)cn1 [Example 3-39, 5-((5-(2-(((1R,2S)-2-aminocyclopentyl)oxy)-6-fluorophenyl)-1H-pyrazol-3-yl)amino)pyrazine-2-carbonitrile] the IC50 was 100 to 500 nM.

N#Cc1cnc(Nc2cc(-c3c(OCC4CC4)cccc3O[C@H]3CC[C@H](N)CC3)[nH]n2)cn1 [Example 1-31, 5-((5-(2-(((1r,4r)-4-aminocyclohexyl)oxy)-6-(cyclopropylmethoxy)phenyl)-1H-pyrazol-3-yl)amino)pyrazine-2-carbonitrile] was tested, and the IC50 was 100 to 500 nM.
